For experiment [1], the target named is T1, Cannabinoid receptor 1 (Homo sapiens, UniProt P21554). Put plainly: SAR analysis of antagonists of the Cannabinoid Receptor 1 using an Image-Based Assay - Set 3. [Related pubchem assays (depositor defined):AID1961, AID1965]. The experiment is classed as functional.
Experiment [2] deals with G-protein coupled receptor 55 (Homo sapiens, UniProt Q9Y2T6). Put plainly: SAR analysis of selective Agonists of GPR55 using an Image-Based Assay - Set 2. [Related pubchem assays (depositor defined):AID1961, AID1965]. The experiment is classed as functional.
Experiment [3] has as its target T2, Cannabinoid receptor 2 (Homo sapiens, UniProt P34972). Put plainly: SAR analysis of agonists of the Cannabinoid Receptor 2 using an Image-Based Assay - Set 2. [Related pubchem assays (depositor defined):AID1961, AID1965]. The experiment is classed as functional.
Experiment [4] addresses T2, Cannabinoid receptor 2. Put plainly: SAR analysis of antagonists of the Cannabinoid Receptor 2 using an Image-Based Assay - Set 2. [Related pubchem assays (depositor defined):AID1961, AID1965]. The format is functional.
Experiment [5] addresses T3, G-protein coupled receptor 35 (Homo sapiens, UniProt Q9HC97). Nature of the experiment: SAR analysis of Agonists of the GPR35 Receptor using an Image-Based Assay - Set 3. [Related pubchem assays (depositor defined):AID1961, AID1965]. The format is functional.
Experiment [6] concerns the target T3, G-protein coupled receptor 35. Nature of the experiment: SAR analysis of Antagonists of the GPR35 Receptor using an Image-Based Assay - Set 4. [Related pubchem assays (depositor defined):[…]]. The format is functional.
Experiment [7] has as its target T1, Cannabinoid receptor 1. Put plainly: SAR analysis of agonists of the Cannabinoid Receptor 1 using an Image-Based Assay - Set 3. [Related pubchem assays (depositor defined):AID1961, AID1965]. The format is functional.
The target of experiment [8] is T4, Short transient receptor potential channel 4 (Mus musculus, UniProt Q9QUQ5).
T4 sequence (Q9QUQ5 whole entry): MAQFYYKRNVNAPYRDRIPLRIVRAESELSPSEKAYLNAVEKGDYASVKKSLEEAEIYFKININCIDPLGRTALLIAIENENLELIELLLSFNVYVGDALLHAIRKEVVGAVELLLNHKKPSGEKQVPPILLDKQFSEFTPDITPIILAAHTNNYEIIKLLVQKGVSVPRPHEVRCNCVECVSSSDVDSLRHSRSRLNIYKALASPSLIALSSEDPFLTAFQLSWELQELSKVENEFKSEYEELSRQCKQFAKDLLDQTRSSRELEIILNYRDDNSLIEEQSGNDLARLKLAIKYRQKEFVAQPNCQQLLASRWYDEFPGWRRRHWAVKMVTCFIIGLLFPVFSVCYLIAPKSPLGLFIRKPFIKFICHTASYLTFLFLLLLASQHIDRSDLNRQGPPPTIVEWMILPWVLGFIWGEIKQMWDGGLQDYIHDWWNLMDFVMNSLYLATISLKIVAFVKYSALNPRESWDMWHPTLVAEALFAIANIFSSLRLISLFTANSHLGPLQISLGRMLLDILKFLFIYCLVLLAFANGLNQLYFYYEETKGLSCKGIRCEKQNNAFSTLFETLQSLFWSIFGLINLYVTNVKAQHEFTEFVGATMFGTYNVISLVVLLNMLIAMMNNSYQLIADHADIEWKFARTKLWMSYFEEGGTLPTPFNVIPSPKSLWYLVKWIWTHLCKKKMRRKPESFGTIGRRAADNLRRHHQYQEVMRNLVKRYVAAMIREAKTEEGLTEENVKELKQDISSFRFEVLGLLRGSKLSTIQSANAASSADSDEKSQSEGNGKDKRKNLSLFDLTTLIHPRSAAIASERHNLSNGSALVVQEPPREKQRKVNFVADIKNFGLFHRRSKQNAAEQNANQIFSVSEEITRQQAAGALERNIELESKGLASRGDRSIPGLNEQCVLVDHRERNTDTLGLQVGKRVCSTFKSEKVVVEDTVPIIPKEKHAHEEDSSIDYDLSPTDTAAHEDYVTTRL
Nature of the experiment: mouse TRPC4 channel activators, dose response, cell-based, HEK293 TRPC4/mu-opioid, Fluo-4 calcium (AID 434937). The format is functional.

Another experiment has as its target Mu-type opioid receptor (Homo sapiens, UniProt P35372). Put plainly: Counterscreen for agonists of heterodimerization of the mu 1 (OPRM1) and delta 1 (OPRD1) opioid receptors: Luminescence-based cell-based high throughput dose response assay to identify agonists of OPRM1 homodimerization. The experiment is classed as functional.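 Also: U2OS cells expressing OPRM1 and beta-arrestin as split beta-galactosidase partners.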
For experiment [9], the target named is Delta-type opioid receptor (Homo sapiens, UniProt P41143). Put plainly: Counterscreen for agonists of heterodimerization of the mu 1 (OPRM1) and delta 1 (OPRD1) opioid receptors: Luminescence-based cell-based high throughput dose response assay to identify agonists of OPRD1 homodimerization. [Related pubchem assays (depositor defined):AID504326, AID504355, AID504692, AID504904, AID504905]. The format is functional.

Experiment [10] deals with T5, Apoptotic protease-activating factor 1 (Homo sapiens, UniProt O14727).
T5 sequence (O14727 whole entry): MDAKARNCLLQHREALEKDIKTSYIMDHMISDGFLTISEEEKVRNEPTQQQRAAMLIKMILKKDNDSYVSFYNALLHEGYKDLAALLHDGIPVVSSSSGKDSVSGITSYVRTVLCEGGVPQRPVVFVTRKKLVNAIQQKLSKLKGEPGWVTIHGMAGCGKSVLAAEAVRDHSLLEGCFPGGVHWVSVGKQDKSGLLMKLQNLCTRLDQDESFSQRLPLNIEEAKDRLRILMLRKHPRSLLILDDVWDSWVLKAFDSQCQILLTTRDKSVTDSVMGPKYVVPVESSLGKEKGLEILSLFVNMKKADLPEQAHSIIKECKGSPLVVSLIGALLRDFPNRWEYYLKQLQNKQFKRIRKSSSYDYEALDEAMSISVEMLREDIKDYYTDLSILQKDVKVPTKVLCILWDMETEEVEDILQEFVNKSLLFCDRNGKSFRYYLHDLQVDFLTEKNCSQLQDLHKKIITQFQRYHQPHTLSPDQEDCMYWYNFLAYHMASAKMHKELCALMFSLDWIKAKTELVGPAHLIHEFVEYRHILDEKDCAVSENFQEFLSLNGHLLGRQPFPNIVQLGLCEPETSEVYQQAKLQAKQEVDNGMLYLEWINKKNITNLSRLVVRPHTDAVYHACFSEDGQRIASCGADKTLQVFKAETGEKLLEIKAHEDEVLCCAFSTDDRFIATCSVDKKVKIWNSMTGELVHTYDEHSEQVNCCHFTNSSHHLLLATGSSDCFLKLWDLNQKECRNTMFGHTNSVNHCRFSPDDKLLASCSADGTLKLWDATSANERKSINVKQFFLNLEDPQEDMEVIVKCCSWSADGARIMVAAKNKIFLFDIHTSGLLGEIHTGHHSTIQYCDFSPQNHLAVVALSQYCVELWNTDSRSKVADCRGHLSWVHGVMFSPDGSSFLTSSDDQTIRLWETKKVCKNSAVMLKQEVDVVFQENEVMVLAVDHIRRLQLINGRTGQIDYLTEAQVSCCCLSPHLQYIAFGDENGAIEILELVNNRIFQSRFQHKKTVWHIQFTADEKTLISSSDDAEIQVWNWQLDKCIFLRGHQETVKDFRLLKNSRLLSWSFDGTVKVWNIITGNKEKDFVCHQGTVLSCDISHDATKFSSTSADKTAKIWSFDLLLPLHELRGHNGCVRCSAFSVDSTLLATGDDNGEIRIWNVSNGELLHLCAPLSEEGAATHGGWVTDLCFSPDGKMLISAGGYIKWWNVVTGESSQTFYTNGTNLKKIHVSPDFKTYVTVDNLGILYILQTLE
The experiment is classed as functional.

The target of experiment [11] is T6, Type-1 angiotensin II receptor (Homo sapiens, UniProt P30556).
T6 sequence (P30556 whole entry): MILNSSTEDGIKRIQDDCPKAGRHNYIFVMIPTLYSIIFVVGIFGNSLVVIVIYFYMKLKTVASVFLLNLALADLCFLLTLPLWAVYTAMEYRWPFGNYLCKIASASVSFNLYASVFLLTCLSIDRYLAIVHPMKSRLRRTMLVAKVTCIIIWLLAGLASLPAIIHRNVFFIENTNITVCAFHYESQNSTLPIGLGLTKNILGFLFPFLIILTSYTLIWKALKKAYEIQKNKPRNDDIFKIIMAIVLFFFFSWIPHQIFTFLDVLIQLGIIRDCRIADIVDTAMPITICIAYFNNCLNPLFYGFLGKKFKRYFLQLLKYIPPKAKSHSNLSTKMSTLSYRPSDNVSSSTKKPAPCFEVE
Nature of the experiment: AT1 receptor agonists, dose response, selectivity assay for APJ receptor agonist project, cell-based, uHTS hits (AID 488865).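 Also: beta-arrestin recruitment to AT1 measured by enzyme fragment complementation luminescence.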 The format is functional.

The target of experiment [12] is 5-hydroxytryptamine receptor 5A (Homo sapiens, UniProt P47898). Nature of the experiment: Counterscreen for agonists of OPRM1-OPRD1 heterodimerization: luminescence-based cell-based high throughput dose response assay to identify agonists of 5-hydroxytryptamine (serotonin) 5A receptor (HTR5A). [Related pubchem assays (depositor defined):AID504326, AID504355, AID504692, AID504904, AID504905]. The experiment is classed as functional.

Experiment [13] is described as follows: HEp-2 cell cytotoxicity, dose response, cytotoxicity control for RSV inhibitor project, HTS (AID 2410). The experiment is classed as functional. The following applies: human respiratory syncytial virus.
For experiment [14], the target named is T7, Ubiquitin-conjugating enzyme E2 N (Homo sapiens, UniProt P61088).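 Also: Dose-response confirmation in a TR-FRET assay detecting UBC13-driven polyubiquitin chain formation, inhibition measured.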
T7 sequence (P61088 whole entry): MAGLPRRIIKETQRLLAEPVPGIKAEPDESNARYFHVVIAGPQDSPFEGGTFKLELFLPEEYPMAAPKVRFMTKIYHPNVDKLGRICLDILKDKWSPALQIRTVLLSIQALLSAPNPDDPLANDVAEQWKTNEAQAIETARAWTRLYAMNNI
The format is functional.

For experiment [15], the target named is T8, Runt-related transcription factor 1/Core-binding factor subunit beta (Homo sapiens, UniProt Q01196+Q13951). Put plainly: inhibitors of RUNX1 Runt–CBFb-SMMHC binding, primary screen, biochemical, FRET, Cerulean-Runt, Venus-CBFb-SMMHC, uHTS (AID 1434).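 Also: partner is the CBFb-SMMHC leukemia fusion protein rather than wild-type CBFb.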 The format is protein assay.
The target of experiment [16] is T8, Runt-related transcription factor 1/Core-binding factor subunit beta. Put plainly: inhibitors of RUNX1 Runt–CBFb-SMMHC binding, biochemical, TR-FRET (AID 1438). The experiment is classed as protein assay.
The target in experiment [17] is T9, Polyadenylate-binding protein 1 (Homo sapiens, UniProt P11940). Nature of the experiment: PABP1 MLLE–PAM2 binding inhibitor potency, dose response, biochemical, fluorescence polarization, FITC-PAM2 peptide (AID 602259). The format is functional. The following applies: read-out: IC50_Mean.
Experiment [18] concerns the target T9, Polyadenylate-binding protein 1. Put plainly: PABP1 MLLE–PAM2 interaction inhibitors, dose response, miRNA deadenylation inhibitor project, biochemical, fluorescence polarization, Cy5-PAM2 peptide, secondary (AID 602260). The format is functional. The following applies: read-out: IC50_Mean.

Active and inactive are the calls of the source.

T1 sequence (P21554 whole entry): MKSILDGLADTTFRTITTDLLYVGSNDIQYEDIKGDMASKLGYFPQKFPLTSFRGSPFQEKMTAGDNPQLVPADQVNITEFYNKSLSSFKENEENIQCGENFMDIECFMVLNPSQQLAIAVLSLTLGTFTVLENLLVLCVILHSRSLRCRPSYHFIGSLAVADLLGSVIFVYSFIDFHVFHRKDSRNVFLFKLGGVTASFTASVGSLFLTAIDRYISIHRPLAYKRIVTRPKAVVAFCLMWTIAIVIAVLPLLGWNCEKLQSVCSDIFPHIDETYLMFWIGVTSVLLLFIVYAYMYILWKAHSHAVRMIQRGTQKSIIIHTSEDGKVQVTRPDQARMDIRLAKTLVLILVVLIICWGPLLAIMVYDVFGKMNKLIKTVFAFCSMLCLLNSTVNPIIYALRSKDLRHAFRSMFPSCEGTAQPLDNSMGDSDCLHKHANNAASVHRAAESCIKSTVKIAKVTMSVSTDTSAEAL
T8 sequence (Q01196 whole entry, the tested form may be a part): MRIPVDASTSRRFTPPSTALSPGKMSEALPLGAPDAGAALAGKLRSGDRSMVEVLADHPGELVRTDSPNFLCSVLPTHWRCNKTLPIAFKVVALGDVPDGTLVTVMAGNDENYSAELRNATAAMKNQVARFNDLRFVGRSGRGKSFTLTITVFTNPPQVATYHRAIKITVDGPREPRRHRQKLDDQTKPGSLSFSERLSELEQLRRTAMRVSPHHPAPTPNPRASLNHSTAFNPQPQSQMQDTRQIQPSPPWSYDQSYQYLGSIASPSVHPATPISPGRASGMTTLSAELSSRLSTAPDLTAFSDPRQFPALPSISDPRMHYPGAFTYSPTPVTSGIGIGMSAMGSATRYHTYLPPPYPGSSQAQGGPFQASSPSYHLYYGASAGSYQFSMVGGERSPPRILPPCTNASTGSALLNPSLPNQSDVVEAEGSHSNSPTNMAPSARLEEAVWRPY
T8 sequence (Q13951 whole entry, the tested form may be a part): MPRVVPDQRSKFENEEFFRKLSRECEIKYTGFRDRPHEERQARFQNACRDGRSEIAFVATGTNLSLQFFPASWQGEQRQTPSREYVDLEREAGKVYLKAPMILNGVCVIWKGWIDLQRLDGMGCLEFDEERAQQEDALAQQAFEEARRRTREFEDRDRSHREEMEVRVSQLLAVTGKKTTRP
T3 sequence (Q9HC97 whole entry): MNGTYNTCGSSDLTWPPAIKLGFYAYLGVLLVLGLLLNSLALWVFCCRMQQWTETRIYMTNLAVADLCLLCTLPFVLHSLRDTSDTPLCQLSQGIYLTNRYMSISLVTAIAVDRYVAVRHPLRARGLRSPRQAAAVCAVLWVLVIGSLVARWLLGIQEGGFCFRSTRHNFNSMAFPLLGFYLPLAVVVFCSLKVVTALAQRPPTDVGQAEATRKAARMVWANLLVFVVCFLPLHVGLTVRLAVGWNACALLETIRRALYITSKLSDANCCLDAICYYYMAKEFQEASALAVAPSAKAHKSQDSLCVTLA
T9 sequence (P11940 whole entry): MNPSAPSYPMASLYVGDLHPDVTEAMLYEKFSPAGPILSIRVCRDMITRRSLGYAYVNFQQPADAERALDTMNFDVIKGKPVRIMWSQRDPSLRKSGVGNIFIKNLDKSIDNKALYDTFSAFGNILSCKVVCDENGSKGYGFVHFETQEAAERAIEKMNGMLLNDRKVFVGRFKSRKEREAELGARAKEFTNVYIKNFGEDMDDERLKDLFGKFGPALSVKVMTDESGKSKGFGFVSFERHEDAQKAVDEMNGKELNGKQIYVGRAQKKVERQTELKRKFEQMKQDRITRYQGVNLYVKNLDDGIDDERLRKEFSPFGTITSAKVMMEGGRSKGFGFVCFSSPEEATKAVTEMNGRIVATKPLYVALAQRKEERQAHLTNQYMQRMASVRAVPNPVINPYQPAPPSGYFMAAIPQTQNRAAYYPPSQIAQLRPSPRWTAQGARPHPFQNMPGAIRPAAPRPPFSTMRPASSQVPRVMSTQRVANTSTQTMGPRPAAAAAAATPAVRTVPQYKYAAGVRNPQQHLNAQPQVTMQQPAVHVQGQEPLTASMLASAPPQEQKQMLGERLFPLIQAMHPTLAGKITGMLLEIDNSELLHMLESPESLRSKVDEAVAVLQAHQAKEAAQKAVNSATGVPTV
T2 sequence (P34972 whole entry): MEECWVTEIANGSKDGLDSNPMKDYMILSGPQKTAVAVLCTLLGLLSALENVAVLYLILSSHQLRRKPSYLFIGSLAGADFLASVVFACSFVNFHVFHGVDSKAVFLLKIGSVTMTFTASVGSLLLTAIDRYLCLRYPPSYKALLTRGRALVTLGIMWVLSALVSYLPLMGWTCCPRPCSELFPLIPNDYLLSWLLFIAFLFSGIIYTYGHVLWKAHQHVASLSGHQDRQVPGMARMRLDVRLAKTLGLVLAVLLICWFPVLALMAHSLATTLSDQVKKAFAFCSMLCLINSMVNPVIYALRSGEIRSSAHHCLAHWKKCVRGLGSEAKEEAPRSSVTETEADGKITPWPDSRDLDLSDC
Chain of Delta-type opioid receptor (P41143 whole entry): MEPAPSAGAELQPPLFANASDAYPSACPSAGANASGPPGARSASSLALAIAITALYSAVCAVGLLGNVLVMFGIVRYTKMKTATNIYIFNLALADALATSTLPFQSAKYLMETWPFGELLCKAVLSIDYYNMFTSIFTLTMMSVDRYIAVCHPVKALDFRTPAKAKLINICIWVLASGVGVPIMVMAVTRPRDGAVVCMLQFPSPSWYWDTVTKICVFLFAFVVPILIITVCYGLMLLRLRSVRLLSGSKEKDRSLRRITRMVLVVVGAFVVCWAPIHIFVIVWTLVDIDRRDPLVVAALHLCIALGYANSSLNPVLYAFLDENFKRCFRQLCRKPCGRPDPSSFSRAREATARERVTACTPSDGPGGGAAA
Chain of 5-hydroxytryptamine receptor 5A (P47898 whole entry): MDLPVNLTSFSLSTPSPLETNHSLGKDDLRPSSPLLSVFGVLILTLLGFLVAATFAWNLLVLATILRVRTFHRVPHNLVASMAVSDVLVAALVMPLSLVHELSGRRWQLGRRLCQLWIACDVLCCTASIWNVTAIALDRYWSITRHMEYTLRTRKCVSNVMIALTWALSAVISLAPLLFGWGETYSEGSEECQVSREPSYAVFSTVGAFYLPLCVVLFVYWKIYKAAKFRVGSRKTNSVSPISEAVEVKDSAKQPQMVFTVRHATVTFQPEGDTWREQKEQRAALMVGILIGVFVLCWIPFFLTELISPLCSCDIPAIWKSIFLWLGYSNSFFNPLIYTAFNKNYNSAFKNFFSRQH
Chain of Mu-type opioid receptor (P35372 whole entry): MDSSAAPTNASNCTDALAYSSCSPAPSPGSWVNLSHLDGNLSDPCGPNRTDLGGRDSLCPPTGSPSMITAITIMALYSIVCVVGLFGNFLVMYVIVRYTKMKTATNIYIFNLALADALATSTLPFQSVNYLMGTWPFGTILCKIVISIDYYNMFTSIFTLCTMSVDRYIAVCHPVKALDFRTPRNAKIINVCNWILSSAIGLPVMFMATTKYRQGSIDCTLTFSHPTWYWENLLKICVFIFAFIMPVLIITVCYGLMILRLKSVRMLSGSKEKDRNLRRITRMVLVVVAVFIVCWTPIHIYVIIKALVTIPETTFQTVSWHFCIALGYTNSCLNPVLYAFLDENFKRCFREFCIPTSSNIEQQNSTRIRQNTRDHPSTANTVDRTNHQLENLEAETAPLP
Chain of G-protein coupled receptor 55 (Q9Y2T6 whole entry): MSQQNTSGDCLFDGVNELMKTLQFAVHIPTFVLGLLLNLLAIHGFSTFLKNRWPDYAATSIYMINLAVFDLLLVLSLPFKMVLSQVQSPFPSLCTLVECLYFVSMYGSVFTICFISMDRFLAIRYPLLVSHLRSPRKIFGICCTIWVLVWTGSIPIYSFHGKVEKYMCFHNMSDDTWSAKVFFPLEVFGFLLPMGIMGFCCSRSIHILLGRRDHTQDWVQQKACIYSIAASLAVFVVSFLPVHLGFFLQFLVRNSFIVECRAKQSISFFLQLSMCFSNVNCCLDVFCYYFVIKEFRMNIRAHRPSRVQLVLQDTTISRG

In the case of `O=C(Nc1cccc(S(=O)(=O)N2CCOCC2)c1)c1ccc(N2CCCC2=O)cc1`, the IC50 (at Cannabinoid receptor 1 [1]; on Cannabinoid receptor 2 [4]; in experiment [6]) was > 32 µM (inactive) each time. The concentration giving a half-maximal response (EC50) is 1.37 µM (active) in [2], > 32 µM (inactive) on Cannabinoid receptor 2 [3], > 32 µM (inactive) in experiment [5] and > 32 µM (inactive) on Cannabinoid receptor 1 [7].

In the case of `CN(C)CCCN(C(=O)c1ccc(S(=O)(=O)N2CCc3ccccc3C2)cc1)c1nc2ccc(F)cc2s1`, the concentration for a half-maximal effect (EC50) in experiment [8] is 0.596 µM (active); at Mu-type opioid receptor, 3.28 µM (active); in [9], > 92.5 µM (inactive); in [11], > 100 µM (inactive); in experiment [12], > 92.5 µM (inactive). Besides, the IC50 in experiment [10] is 47.9 µM (active); in [14], > 20 µM (inactive). Moreover, the CC50 in [13] is 31.1 µM (active).

With `N#Cc1cc2c(=O)n3ccccc3nc2n(Cc2ccco2)/c1=N/C(=O)c1ccco1`, the IC50 in [15] was 1.67 µM (active); in [16] it was 56.1 µM (inactive); in experiment [17], > 66 µM (inactive); in experiment [18] it was > 66 µM (inactive).

The values are drawn from ChEMBL document CHEMBL1201862, “PubChem BioAssay data set” (2004).
